In patent US20200129504A1, “COMPOSITIONS OF PLINABULIN AND USE THEREOF” (BeyondSpring Pharmaceuticals, Inc., priority 2017, published 2020):

Tests used:
PDE3 = biological target: T1, PDE3 (Homo sapiens, UniProt Q14432); experiment: Phosphodiesterase bioassay screening, PDE3 assay; type: biochemical; conditions: Plinabulin concentration 10 μm; n 2; source human platelets; [3H]cAMP+cAMP substrate; 25° C.
T1 construct: The source for the PDE3 and PDE5 assays were human platelets; from tissue; host or cells: human platelets
T1 sequence (Q14432 whole entry): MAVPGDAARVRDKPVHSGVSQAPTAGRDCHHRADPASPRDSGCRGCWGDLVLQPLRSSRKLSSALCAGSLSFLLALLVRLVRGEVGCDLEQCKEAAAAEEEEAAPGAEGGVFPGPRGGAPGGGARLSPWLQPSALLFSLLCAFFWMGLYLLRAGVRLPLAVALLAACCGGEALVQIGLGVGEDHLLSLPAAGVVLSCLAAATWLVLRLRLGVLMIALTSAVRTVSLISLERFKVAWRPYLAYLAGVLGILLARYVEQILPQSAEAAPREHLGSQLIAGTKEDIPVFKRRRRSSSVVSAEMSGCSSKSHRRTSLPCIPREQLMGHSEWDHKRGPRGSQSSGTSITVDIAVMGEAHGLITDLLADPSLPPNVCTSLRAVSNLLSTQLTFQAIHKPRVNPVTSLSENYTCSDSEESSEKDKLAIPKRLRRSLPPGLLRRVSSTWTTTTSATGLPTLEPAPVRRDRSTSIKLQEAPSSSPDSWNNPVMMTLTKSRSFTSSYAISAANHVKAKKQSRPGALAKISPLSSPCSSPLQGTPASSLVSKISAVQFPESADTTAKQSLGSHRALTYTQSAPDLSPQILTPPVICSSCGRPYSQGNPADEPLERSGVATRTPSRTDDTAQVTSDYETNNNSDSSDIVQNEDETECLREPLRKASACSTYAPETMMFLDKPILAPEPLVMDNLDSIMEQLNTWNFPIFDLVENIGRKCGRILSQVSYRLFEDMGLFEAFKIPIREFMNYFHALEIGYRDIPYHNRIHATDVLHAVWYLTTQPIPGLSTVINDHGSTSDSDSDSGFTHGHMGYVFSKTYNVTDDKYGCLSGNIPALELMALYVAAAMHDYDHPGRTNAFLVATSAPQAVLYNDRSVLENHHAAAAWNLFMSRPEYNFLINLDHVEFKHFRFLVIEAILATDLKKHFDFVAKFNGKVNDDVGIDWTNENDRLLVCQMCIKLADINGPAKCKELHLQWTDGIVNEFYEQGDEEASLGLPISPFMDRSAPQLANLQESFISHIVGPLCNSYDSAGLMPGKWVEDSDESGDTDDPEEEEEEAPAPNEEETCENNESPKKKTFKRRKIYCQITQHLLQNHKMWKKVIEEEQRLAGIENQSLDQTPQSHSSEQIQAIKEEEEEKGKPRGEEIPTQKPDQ
Description: (§1) Plinabulin was tested using Phosphodiesterase assays including PDE3, PDE4, and PDE5 assays. The source for the PDE3 and PDE5 assays were human platelets and for PDE4 assay was human U937 cells. The substrate for all three assays was 1.01 µM [.H]cAMP+cAMP. For all three assays, the pre-incubation time was 15 mins, the incubation time was 20 mins, and the pre-incubation and incubation temperature was 25° C. The quantification method involves quantitation of [^3H]Adenosine, and the significant criteria was set for i 50% of max stimulation or inhibition.

[1] = Clinical study of docetaxel plus plinabulin versus docetaxel alone: dexamethasone-related treatment emergent adverse events; type: in vivo, patients
Description: Patients received either docetaxel plus plinabulin (DN) or docetaxel alone (75 mg/m^2) (D) treatment. Two dosing cohorts were investigated: • 1) 30 mg/m^2 dosing cohort: patients were randomized (1:1) to receive either docetaxel plus plinabulin at 30 mg/m^2 (DN 30 mg/m^2 arm) or docetaxel alone (D arm), • 2) 20 mg/m^2 dosing cohort: patients were randomized (2:1) to receive either docetaxel plus plinabulin at 20 mg/m^2 (DN 20 mg/m^2 arm) or docetaxel (D arm) alone.
Patients received therapy on Day 1 and Day 8 in 3-week cycles. Therapy on Day 1 consisted of 75 mg/m^2 docetaxel administered via intravenous infusion (IV) over 1 hour, followed 2 hours later (from the time the docetaxel infusion began) by placebo (Arm D) or 30 mg/m^2 or 20 mg/m^2 plinabulin (Arm DN) administered via intravenous infusion (IV) over 30 minutes. […]
Treatment Phase: Safety assessments (including a complete physical examination) were performed prior to study drug infusion. […] Additionally, the following were evaluated: CBC with differential/platelets and clinical chemistry were performed up to 72 hours prior to Day 1 of each cycle; an additional assessment occurred in Cycle 1/Day 15; Vital signs (heart rate, respiratory rate, blood pressure and temperature) were taken on the days of infusion immediately before and after each study drug infusion and at 30 and 60 minutes following last infusion on the first cycle. […]

PDE5 = biological target: T2, PDE5 (Homo sapiens, UniProt O76074); experiment: Phosphodiesterase bioassay screening, PDE5 assay; type: biochemical; conditions: Plinabulin concentration 10 μm; n 2; source human platelets; [3H]cAMP+cAMP substrate; 25° C.
T2 construct: The source for the PDE3 and PDE5 assays were human platelets; from tissue; host or cells: human platelets
Description: as §1

PDE4 = experiment: Phosphodiesterase bioassay screening, PDE4 assay; type: biochemical, human
Description: as §1

CC(C)(C)c1[nH]cnc1/C=c1\[nH]c(=O)/c(=C/c2ccccc2)[nH]c1=O [Plinabulin, (3Z,6Z)-3-Benzylidene-6-{[5-(2-methyl-2-propanyl)-1H-imidazol-4-yl]methylene}-2,5-piperazinedione]
% of inhibition (PDE3): 7% | steroid related adverse events versus patients receiving no plinabulin ([1]; 30 mg/m^2 of plinabulin, p=0.026): statistically more significant | steroid (dexamethasone)-related adverse events, effect of plinabulin dose (FIG. 1) ([1]; plinabulin 20 and 30 mg/m^2 added to docetaxel): dose-dependent increase | % of inhibition (PDE5): 25% | % of inhibition (PDE4; Plinabulin concentration 10 μm, n 2, source human U937 cells, [3H]cAMP+cAMP substrate, 25° C.): 77% | inhibition activity against PDE4 compared with PDE3 and PDE5 (PDE4; from Table 1, 10 μm): better inhibition activity against PDE4
